Assay results as given in patent publication US8329755B2, “Methods for treating retroviral infections” (Roche Palo Alto LLC, priority 2004, dated 2012).

| Compound | melting point [°C] |
| --- | --- |
| Cc1cc(S(N)(=O)=O)ccc1NC(=O)Cc1ccc(C)c(Oc2cc(Cl)cc(C#N)c2)c1F [Compound I-74, 2-[3-(3-Chloro-5-cyano-phenoxy)-2-fluoro-4-methyl-phenyl]-N-(2-methyl-4-sulfamoyl-phenyl)-acetamide] | 230 to 232.2 |
| COc1ccc(CC(=O)Nc2ccc(S(N)(=O)=O)cc2C)cc1Oc1cc(C#N)cc(C(F)F)c1 [Compound I-93, 2-[3-(3-Cyano-5-difluoromethyl-phenoxy)-4-methoxy-phenyl]-N-(2-methyl-4-sulfamoyl-phenyl)-acetamide] | 175 to 177.2 |
| COC(=O)Cc1ccc(NC(=O)Cc2ccc(C)c(Oc3cc(Cl)cc(C#N)c3)c2)c(Cl)c1 [Compound I-235, (3-Chloro-4-{2-[3-(3-chloro-5-cyano-phenoxy)-4-methyl-phenyl]-acetylamino}-phenyl)-acetic acid methyl ester] | 116.9 to 118 |
| Cc1ccc(CC(=O)Nc2ccc(S(N)(=O)=O)cc2)cc1Oc1cc(Cl)ccc1Br [Compound I-30, 2-[3-(2-Bromo-5-chloro-phenoxy)-4-methyl-phenyl]-N-(4-sulfamoyl-phenyl)-acetamide] | 236.9 to 239.3 |
| Cc1cc(S(N)(=O)=O)ccc1NC(=O)Cc1ccc(Cl)c(Oc2cc(C#N)cc(C#CCO)c2)c1F [Compound I-186, 2-{4-Chloro-3-[3-cyano-5-(3-hydroxy-prop-1-ynyl)-phenoxy]-2-fluoro-phenyl}-N-(2-methyl-4-sulfamoyl-phenyl)-acetamide] | 170.1 to 173.2 |
| Cc1cc(S(N)(=O)=O)ccc1NC(=O)Cc1ccc(C)c(Oc2cc(C#N)cc(C(F)F)c2)c1F [Compound I-85, 2-[3-(3-Cyano-5-difluoromethyl-phenoxy)-2-fluoro-4-methyl-phenyl]-N-(2-methyl-4-sulfamoyl-phenyl)-acetamide] | 218 to 220.4 |
| CCc1ccc(CC(=O)Nc2ccccc2Cl)cc1Oc1cc(C#N)cc(F)c1Cl [Compound I-59, 2-[3-(2-Chloro-5-cyano-3-fluoro-phenoxy)-4-ethyl-phenyl]-N-(2-chloro-phenyl)-acetamide] | 142.1 to 142.8 |
| CCc1ccc(CC(=O)Nc2ccc(S(N)(=O)=O)cc2)cc1Oc1c(Cl)cccc1Cl [Compound I-20, 2-[3-(2,6-Dichloro-phenoxy)-4-ethyl-phenyl]-N-(4-sulfamoyl-phenyl)-acetamide] | 222.5 to 225 |
| N#Cc1cc(Cl)cc(Oc2c(Cl)ccc(CC(=O)Nc3ccc(S(=O)(=O)NC(=O)CCC(=O)O)cc3Cl)c2F)c1 [Compound I-188, 4-(3-Chloro-4-{2-[4-chloro-3-(3-chloro-5-cyano-phenoxy)-2-fluoro-phenyl]-acetylamino}-benzenesulfonylamino)-4-oxo-butyric acid] | 143.4 to 144 |
| Cc1cc(S(N)(=O)=O)ccc1NC(=O)Cc1ccc(Cl)c(C(=O)c2cc(Cl)ccc2Cl)c1 [Compound I-249, 2-[4-Chloro-3-(2,5-dichloro-benzoyl)-phenyl]-N-(2-methyl-4-sulfamoyl-phenyl)-acetamide] | 214.9 to 218.8 |
| CC(C)[C@H](N)C(=O)NS(=O)(=O)c1ccc(NC(=O)Cc2ccc(Cl)c(Oc3cc(Cl)cc(C#N)c3)c2F)c(Cl)c1.[Na] [Compound I-127, N-[4-((S)-2-Amino-3-methyl-butyrylsulfamoyl)-2-chloro-phenyl]-2-[4-chloro-3-(3-chloro-5-cyano-phenoxy)-2-fluoro-phenyl]-acetamide; sodium salt] | 219.4 to 220.2 |
| CCc1ccc(CC(=O)Nc2ccc(S(N)(=O)=O)cc2Cl)cc1Oc1cc(C#N)cc(C#N)c1Cl [Compound I-54, 2-[3-(2-Chloro-3,5-dicyano-phenoxy)-4-ethyl-phenyl]-N-(2-chloro-4-sulfamoyl-phenyl)-acetamide] | 180.3 to 183.1 |
| COc1ccc(CC(=O)Nc2ccc(S(N)(=O)=O)cc2)cc1Oc1cc(Cl)cc(C#N)c1 [Compound I-57, 2-[3-(3-Chloro-5-cyano-phenoxy)-4-methoxy-phenyl]-N-(4-sulfamoyl-phenyl)-acetamide] | 218.3 to 221.4 |
| CCc1ccc(CC(=O)Nc2ccc(S(N)(=O)=O)cc2)cc1Oc1cc(Cl)cc(Br)c1Cl [Compound I-35, 2-[3-(3-Bromo-2,5-dichloro-phenoxy)-4-ethyl-phenyl]-N-(4-sulfamoyl-phenyl)-acetamide] | 206.9 to 209.9 |
| Cc1ccc(CC(=O)Nc2ccc(S(N)(=O)=O)cc2Cl)c(F)c1Oc1cc(Cl)cc(C#N)c1 [Compound I-83, 2-[3-(3-Chloro-5-cyano-phenoxy)-2-fluoro-4-methyl-phenyl]-N-(2-chloro-4-sulfamoyl-phenyl)-acetamide] | 228.9 to 230.6 |
| Cc1cc(OC[C@@H](O)CO)ccc1NC(=O)Cc1ccc(C)c(Oc2cc(Cl)cc(C#N)c2)c1 [Compound I-150, 2-[3-(3-Chloro-5-cyano-phenoxy)-4-methyl-phenyl]-N-[4-((S)-2,3-dihydroxy-propoxy)-2-methyl-phenyl]-acetamide] | 137.5 to 138.4 |
| CCc1ccc(CC(=O)Nc2ccc(S(N)(=O)=O)cc2)cc1Oc1cc(Cl)ccc1C#N [Compound I-17, 2-[3-(5-Chloro-2-cyano-phenoxy)-4-ethyl-phenyl]-N-(4-sulfamoyl-phenyl)-acetamide] | 198.1 to 202.6 |

| Compound | melting point [°C] |
| --- | --- |
| CNS(=O)(=O)c1ccc(NC(=O)Cc2ccc(Cl)c(Oc3cc(Cl)cc(C#N)c3)c2F)c(Cl)c1 [Compound I-168, 2-[4-Chloro-3-(3-chloro-5-cyano-phenoxy)-2-fluoro-phenyl]-N-(2-chloro-4-methylsulfamoyl-phenyl)-acetamide] | 199.1 to 200 |
| CCc1ccc(CC(=O)Nc2ccc(S(N)(=O)=O)cc2Cl)cc1Oc1cc(Cl)cc(C#N)c1 [Compound I-47, 2-[3-(3-Chloro-5-cyano-phenoxy)-4-ethyl-phenyl]-N-(2-chloro-4-sulfamoyl-phenyl)-acetamide] | 181.1 to 183.9 |
| CC(C)CC(=O)NS(=O)(=O)c1ccc(NC(=O)Cc2ccc(Cl)c(Oc3cc(Cl)cc(C#N)c3)c2F)c(Cl)c1.[Na] | 159.3 to 163.4 |
| CCCC(=O)N(C)S(=O)(=O)c1ccc(NC(=O)Cc2ccc(Cl)c(Oc3cc(Cl)cc(C#N)c3)c2F)c(Cl)c1 [Compound I-139, N-[4-(Butyryl-methyl-sulfamoyl)-2-chloro-phenyl]-2-[4-chloro-3-(3-chloro-5-cyano-phenoxy)-2-fluoro-phenyl]-acetamide] | 186.9 to 187.6 |
| Cc1cc(CC(=O)Nc2ccc(S(N)(=O)=O)cc2)cc(C(=O)c2ccccc2Cl)c1 [Compound I-263, 2-[3-(2-Chloro-benzoyl)-5-methyl-phenyl]-N-(4-sulfamoyl-phenyl)-acetamide] | 165 to 167 |
| NS(=O)(=O)c1ccc(NC(=O)Cc2ccc(Cl)c(C(=O)c3cc(Cl)ccc3Cl)c2)c(Cl)c1 [Compound I-253, 2-[4-Chloro-3-(2,5-dichloro-benzoyl)-phenyl]-N-(2-chloro-4-sulfamoyl-phenyl)-acetamide] | 197 to 199.6 |
| COCCC(=O)N(C)S(=O)(=O)c1ccc(NC(=O)Cc2ccc(Cl)c(Oc3cc(Cl)cc(C#N)c3)c2F)c(Cl)c1 [Compound I-172, 2-[4-Chloro-3-(3-chloro-5-cyano-phenoxy)-2-fluoro-phenyl]-N-{2-chloro-4-[(3-methoxy-propionyl)-methyl-sulfamoyl]-phenyl}-acetamide] | 199.3 to 203 |
| Cc1cc(N(C)S(C)(=O)=O)ccc1NC(=O)Cc1ccc(C)c(Oc2cc(Cl)cc(C#N)c2)c1 [Compound I-238, 2-[3-(3-Chloro-5-cyano-phenoxy)-4-methyl-phenyl]-N-[4-(methanesulfonyl-methyl-amino)-2-methyl-phenyl]-acetamide] | 184 to 184.8 |
| CCc1ccc(CC(=O)Nc2ccc(S(N)(=O)=O)cc2C)cc1Oc1cc(C#N)cc(F)c1Cl [Compound I-50, 2-[3-(2-Chloro-5-cyano-3-fluoro-phenoxy)-4-ethyl-phenyl]-N-(2-methyl-4-sulfamoyl-phenyl)-acetamide] | 217.6 to 220.4 |
| Cc1cc(NC(=O)Cc2ccc(C)c(Oc3cc(Cl)cc(C#N)c3)c2)n(C)n1 [Compound I-226, 2-[3-(3-Chloro-5-cyano-phenoxy)-4-methyl-phenyl]-N-(2,5-dimethyl-2H-pyrazol-3-yl)-acetamide] | 155.6 to 159 |
| COc1ccc(CC(=O)Nc2ccc(S(N)(=O)=O)cc2C)c(F)c1Oc1cc(Cl)cc(C#N)c1 [Compound I-191, 2-[3-(3-Chloro-5-cyano-phenoxy)-2-fluoro-4-methoxy-phenyl]-N-(2-methyl-4-sulfamoyl-phenyl)-acetamide] | 239.9 to 240.8 |
| COc1ccc(CC(=O)Nc2ccccc2)cc1Oc1cc(Cl)cc(C#N)c1 [Compound I-210, 2-[3-(3-Chloro-5-cyano-phenoxy)-4-methoxy-phenyl]-N-phenyl-acetamide] | 171.3 to 171.6 |
| Cc1cc(S(N)(=O)=O)ccc1NC(=O)Cc1ccc(Cl)c(Oc2cc(C#N)cc(C(F)(F)F)c2)c1 [Compound I-89, 2-[4-Chloro-3-(3-cyano-5-trifluoromethyl-phenoxy)-phenyl]-N-(2-methyl-4-sulfamoyl-phenyl)-acetamide] | 211.6 to 214.6 |
| Cc1cc(S(=O)(=O)NC2CCC(O)CC2)ccc1NC(=O)Cc1ccc(C)c(Oc2cc(Cl)cc(C#N)c2)c1 (stereo not shown) [Compound I-121, 2-[3-(3-Chloro-5-cyano-phenoxy)-4-methyl-phenyl]-N-[4-(4-hydroxy-cyclohexylsulfamoyl)-2-methyl-phenyl]-acetamide] | 195.1 to 197.7 |
| Cc1cc(CC(=O)Nc2ccc(S(N)(=O)=O)cc2)cc(C(=O)c2cc(Cl)cc(Cl)c2)c1 [Compound I-269, 2-[3-(3,5-Dichloro-benzoyl)-5-methyl-phenyl]-N-(4-sulfamoyl-phenyl)-acetamide] | 226 to 227.9 |
| CCc1ccc(CC(=O)Nc2ccccc2Cl)cc1Oc1c(Cl)cccc1Cl [Compound I-23, N-(2-Chloro-phenyl)-2-[3-(2,6-dichloro-phenoxy)-4-ethyl-phenyl]-acetamide] | 107 to 110.5 |
| CCc1ccc(CC(=O)Nc2ccc(S(=O)(=O)NC)cc2)cc1Oc1cc(Cl)cc(C#N)c1 [Compound I-48, 2-[3-(3-Chloro-5-cyano-phenoxy)-4-ethyl-phenyl]-N-(4-methylsulfamoyl-phenyl)-acetamide] | 149.1 to 151.3 |
